Experimental data reported in ChEMBL document CHEMBL1275243 (2010).
Values after ≈ are worked out from the molar mass of the structure shown. Active and inactive are the calls of the source. No cut-off for these calls is given here.

Experiments:
Bacillus anthracis [1] = assay: Antimicrobial activity against Bacillus anthracis A0248 by broth microdilution method; format: functional
Bacillus anthracis [2] = assay: Antimicrobial activity against Bacillus anthracis A0462 by broth microdilution method; format: functional
Bacillus anthracis [3] = assay: Antimicrobial activity against Bacillus anthracis A03768 by broth microdilution method; format: functional
Bacillus anthracis [4] = assay: Antimicrobial activity against Bacillus anthracis A0193 by broth microdilution method; format: functional
Bacillus anthracis [5] = assay: Antimicrobial activity against Bacillus anthracis Sterne 411A2 harboring GyrA Ser85Leu and parC Ser81Phe mutant gene by broth microdilution method; format: functional, Bacillus anthracis str. Sterne
Bacillus anthracis [6] = assay: Antimicrobial activity against Bacillus anthracis A0465 by broth microdilution method; format: functional
Bacillus anthracis [7] = assay: Antimicrobial activity against Bacillus anthracis Sterne 411A2 assessed as growth inhibition at 16 ug/ml after 4 hrs relative to control; format: functional, organism-based; conditions: Bacillus anthracis str. Sterne
Bacillus anthracis [8] = assay: Antimicrobial activity against Bacillus anthracis Sterne 402 harboring gyrA Ser85Leu mutant gene by broth microdilution method; format: functional, Bacillus anthracis str. Sterne
Bacillus anthracis [9] = assay: Antimicrobial activity against pXO1-positive and pXO2 negative Bacillus anthracis 34F2 by broth microdilution method; format: functional
Bacillus anthracis [10] = assay: Antimicrobial activity against Bacillus anthracis 240 by broth microdilution method; format: functional
Bacillus anthracis [11] = assay: Antimicrobial activity against Bacillus anthracis A0293 by broth microdilution method; format: functional
Bacillus anthracis [12] = assay: Antimicrobial activity against tetracycline-nonsusceptible Bacillus anthracis Sterne S1028 by broth microdilution method; format: functional, Bacillus anthracis str. Sterne
Bacillus anthracis [13] = assay: Antimicrobial activity against Bacillus anthracis A0264 by broth microdilution method; format: functional
Bacillus anthracis [14] = assay: Antimicrobial activity against Bacillus anthracis A0419 by broth microdilution method; format: functional
Bacillus anthracis [15] = assay: Antimicrobial activity against Bacillus anthracis A0149 by broth microdilution method; format: functional
Bacillus anthracis [16] = assay: Antimicrobial activity against Bacillus anthracis A0488 by broth microdilution method; format: functional
Bacillus anthracis [17] = assay: Antimicrobial activity against Bacillus anthracis A0188 by broth microdilution method; format: functional
Bacillus anthracis [18] = assay: Antimicrobial activity against Bacillus anthracis A0102 by broth microdilution method; format: functional

Row | Structure (SMILES) | MIC (Bacillus anthracis [1]) [µg/mL] | MIC (Bacillus anthracis [2]) [µg/mL] | MIC (Bacillus anthracis [3]) [µg/mL] | MIC (Bacillus anthracis [4]) [µg/mL] | MIC (Bacillus anthracis [5]) | MIC (Bacillus anthracis [6]) [µg/mL] | inhibition (Bacillus anthracis [7]) | MIC (Bacillus anthracis [8]) | MIC (Bacillus anthracis [9]) [µg/mL] | MIC (Bacillus anthracis [10]) [µg/mL] | MIC (Bacillus anthracis [11]) [µg/mL] | MIC (Bacillus anthracis [12]) [µg/mL] | MIC (Bacillus anthracis [13]) [µg/mL] | MIC (Bacillus anthracis [14]) [µg/mL] | MIC (Bacillus anthracis [15]) [µg/mL] | MIC (Bacillus anthracis [16]) [µg/mL] | MIC (Bacillus anthracis [17]) [µg/mL] | MIC (Bacillus anthracis [18]) [µg/mL]
1 | O=C(O)c1cn(C2CC2)c2cc(N3CCNCC3)c(F)cc2c1=O [CIPROFLOXACIN] | 0.12 (≈ 0.362 µM) | 0.12 (≈ 0.362 µM) | 0.12 (≈ 0.362 µM) | 0.015 (≈ 0.0453 µM) | >16 µg/mL | 0.03 (≈ 0.0905 µM) | inactive | 1 µg/mL (≈ 3.02 µM) |  |  |  |  |  |  |  |  |  | 
2 | C[C@H]1c2cccc(O)c2C(=O)C2=C(O)[C@]3(O)C(=O)C(C(N)=O)=C(O)[C@@H](N(C)C)[C@@H]3[C@@H](O)[C@@H]21.O [DOXYCYCLINE] | ≤ 0.06 | ≤ 0.06 | ≤ 0.06 | ≤ 0.06 | <=0.06 ug ml-1 | ≤ 0.06 |  | <=0.06 ug ml-1 | ≤ 0.06 | ≤ 0.06 | ≤ 0.06 | 1 | ≤ 0.06 | ≤ 0.06 | ≤ 0.06 | ≤ 0.06 | ≤ 0.06 | ≤ 0.06
